The source of these data is patent US6075121A, “Modified peptide and peptide libraries with protease resistance, derivatives thereof and methods of producing and screening such” (Chiron Corporation, priority 1995, dated 2000).

Residues, ends and D or L forms follow the SMILES beside them. *: point of attachment. Fmoc = O=C(OCC1c2ccccc2-c2ccccc21)*

Usually amount remaining stands for the share of the starting amount still present when the sample was taken.

Data set [1] deals with T1, dihydrofolate reductase (DHFR) found in Pneumocystis carinii (Pneumocystis carinii, UniProt P16184).
T1 sequence (P16184 1-206): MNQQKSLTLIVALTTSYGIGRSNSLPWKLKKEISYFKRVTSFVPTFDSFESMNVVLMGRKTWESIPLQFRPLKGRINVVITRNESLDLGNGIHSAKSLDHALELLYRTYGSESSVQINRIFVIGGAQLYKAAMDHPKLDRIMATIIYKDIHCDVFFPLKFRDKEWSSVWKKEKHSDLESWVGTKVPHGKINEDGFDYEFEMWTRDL
The following applies: stated without a test; cited from earlier work.

Data set [2] addresses chymotrypsin (Bos taurus, UniProt P00766). The data set can be described thus: Proteolysis of peptoids and peptides by chymotrypsin. Type of data set: in vitro ADME. From the text:
(§1) Both compounds were purified to homogeneity by HPLC.

For data set [3], the target named is T2, trypsin (Bos taurus, UniProt P00760).
T2 construct: gene PRSS1
T2 sequence (P00760 24-246): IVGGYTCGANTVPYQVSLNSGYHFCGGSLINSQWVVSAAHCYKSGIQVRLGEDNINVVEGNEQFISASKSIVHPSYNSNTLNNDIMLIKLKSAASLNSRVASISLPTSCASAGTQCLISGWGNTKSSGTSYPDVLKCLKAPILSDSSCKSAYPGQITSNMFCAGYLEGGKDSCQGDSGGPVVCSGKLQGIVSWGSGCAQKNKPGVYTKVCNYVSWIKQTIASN
Put plainly: Proteolysis of peptoids and peptides by trypsin. Type of data set: in vitro ADME.
Excerpt: as §1

Data set [4] has as its system chymotrypsin. The data set can be described thus: Proteolysis of peptoids and peptides by chymotrypsin. Type of data set: in vitro ADME. The following applies: chymotrypsin (isolated protease) in Tris buffer, chymotrypsin, 37° C., pH 8.0, read-out: % Area at 280 nm Remaining of Parent Peak by RP-HPLC.
Excerpt: as §1

For data set [5], the system named is T3, trypsin.
T3 construct: gene PRSS1
The data set can be described thus: Proteolysis of peptoids and peptides by trypsin. It counts as in vitro ADME. The following applies: trypsin (isolated protease) in Tris buffer, trypsin, 37° C., pH 8.0, read-out: % Area at 280 nm Remaining of Parent Peak by RP-HPLC.
Excerpt: as §1

Data set [6] concerns bacterial dihydrofolate reductases. The following applies: stated without a test; cited from earlier work.
Data set [7] concerns antiserum S259-8 (epitope KDFL). Put plainly: Antibody binding of peptides and peptoids on pins, serum S259-8. Also on record: key: A `P` represents a peptide sequence which gave the highest 6-8 signals; a `*` represents a peptoid sequence which scored in the top 6-10. The following applies: serum S259-8, epitope KDFL; for antibody binding signal rank, peptide sequence: peptide on pins; for antibody binding signal rank, peptoid sequence: peptoid on pins. As for the experimental part:
(§2) Peptoids and peptides were prepared on the pins and tested under standard conditions. The assay is best interpreted qualitatively, and the chart below gives a summary of data from three antisera tested. They are representative for the twelve sera which gave signals with both the peptoids and peptides. A `P` represents a peptide sequence which gave the highest 6-8 signals. Likewise, a `*` represents a peptoid sequence which scored in the top 6-10. For the three sera tested, 33/120 sequences are represented which lends support to the premise that there is selective binding shown by the antibody.

The subject of data set [8] is antiserum S259-6 (epitope DFLEKI). The data set can be described thus: Antibody binding of peptides and peptoids on pins, serum S259-6. The following applies: serum S259-6, epitope DFLEKI. Also on record: key: A `P` represents a peptide sequence which gave the highest 6-8 signals; a `*` represents a peptoid sequence which scored in the top 6-10. As for the experimental part:
as §2

As to `COc1cc(Cc2cnc(N)nc2N)cc(OC)c1NC(=O)CCC(=O)O` [2,4-diamino-5-[3,5-di-methoxy-4-(3-hydrocarboxy-1-oxopropylamino)benzyl]pyrimidine], the “inhibitory activity on DHFR” value in data set [1] was “inhibitory activity specific for the enzyme dihydrofolate reductase (DHFR) found in Pneumocystis carinii”. In the case of `CC(C)C[C@H](NC(=O)OCC1c2ccccc2-c2ccccc21)C(=O)N[C@@H](CC(=O)O)C(=O)N[C@@H](Cc1ccccc1)C(=O)N[C@@H](CO)C(=O)N[C@@H](CCCCN)C(=O)NCC(=O)O` [PEPTIDE, FMOC-LDFSKG-OH] (Fmoc-LDFSKG-OH), on chymotrypsin [2], the “number of chymotrypsin cleavage sites” value is “at least two cleavage sites”. The “cleavage completed at the preferential chymotrypsin site” value at chymotrypsin [2] (after 10 minutes) was ~ 60%. On chymotrypsin [2] (after three hours), the “cleavage at the second chymotrypsin site” value was “not completely cleaved”. The “number of places cleaved by trypsin” value on trypsin [3] was “only one place”. Besides, the “time to complete cleavage by trypsin” value at trypsin [3] (37° C., pH 8.0) is at most 5 min. Take `CC(C)CN(CC(=O)N(CC(=O)O)CC(=O)N(CC(=O)N(CCO)CC(=O)N(CCN)CC(=O)NCC(=O)O)Cc1ccccc1)C(=O)OCC1c2ccccc2-c2ccccc21` [PEPTOID, FMOC-L*D*F*S*K*G-OH]: the share remaining at 5 min, 0.48 mg/mL with chymotrypsin [4] (5 min) and in the data set on trypsin [5] (5 min) was 100% throughout. The share remaining at 10 min, 0.48 mg/mL in the data set with chymotrypsin [4] (10 min) and in the data set with trypsin [5] (10 min) was 100% in each case. Besides, the share remaining at 3 h, 0.48 mg/mL with chymotrypsin [4] (3 hours) and in the data set on trypsin [5] (3 hours) was 100% in each case. At trypsin [3] (all reaction conditions (trypsin, chymotrypsin, control)), the “change of substrate under proteolysis conditions” value is on record as “remained unchanged”. `COc1cc(Cc2cnc(N)nc2N)cc(OC)c1OC` [Trimethoprim]: the “inhibition of dihydrofolate reductases” value in data set [6] is recorded as “potent inhibitor”. Turning to DFLKS, in data set [7], the “antibody binding signal rank, peptide sequence” value is recorded as “P”. On to DFLSK, for which the “antibody binding signal rank, peptide sequence” value in data set [8] and in data set [7] was “P” each time. Take DKFSL: the “antibody binding signal rank, peptide sequence” value in data set [8] is given as “P”.

As to FSKLD, the “antibody binding signal rank, peptide sequence” value in data set [8] is listed as “P”.

With KDFLS, the “antibody binding signal rank, peptide sequence” value in data set [8] and in data set [7] was “P” each time. With KFLDS, the “antibody binding signal rank, peptide sequence” value in data set [8] is “P”.

Consider KLSFD, for which, in data set [7], the “antibody binding signal rank, peptide sequence” value is reported as “P” and the “antibody binding signal rank, peptoid sequence” value is given as “*”. As to KSDFL, the “antibody binding signal rank, peptide sequence” value in data set [7] was “P”. As to LFKDS, the “antibody binding signal rank, peptide sequence” value in data set [8] is “P”.

Take LKFDS: the “antibody binding signal rank, peptide sequence” value in data set [8] was “P”. As to LKSFD, in data set [7], the “antibody binding signal rank, peptide sequence” value is given as “P” and the “antibody binding signal rank, peptoid sequence” value was “*”. On to SDFLK, for which the “antibody binding signal rank, peptide sequence” value in data set [8] was “P”. Further, in data set [7], the “antibody binding signal rank, peptide sequence” value was “P” and the “antibody binding signal rank, peptoid sequence” value is “*”.

As for SFLDK, the “antibody binding signal rank, peptide sequence” value in data set [7] is given as “P”. As for SKDFL, in data set [7], the “antibody binding signal rank, peptide sequence” value is listed as “P”.
